Key:
Experiment in all cases: MIC determination by microtitre broth dilution
Assay type in all cases: cell-based
E. coli UB1005 C498 wt = conditions: Gram−, Mueller Hinton broth, 37° C., 24 h, aerobic, N = No activity
Protocol: (§1) MIC assays were conducted essentially as described by Amsterdam, D. 1996, “Susceptibility testing of antimicrobials in liquid media,” p. 52–111. In Loman, V., ed. Antibiotics in laboratory medicine, 4th ed. Williams and Wilkins, Baltimore, Md.

[1] = tested on: K. pneumoniae ATCC13883 C238 wt; conditions: Gram−, Mueller Hinton broth, 37° C., 24 h, aerobic, N = No activity
Protocol: as §1

[2] = tested on: P. aeruginosa PAE/K799 H187 Wt; conditions: Gram−, Mueller Hinton broth, 37° C., 24 h, aerobic, N = No activity
Protocol: as §1

[3] = tested on: S. aureus ATCC25923 C622 wt; conditions: Gram+, Mueller Hinton broth, 37° C., 24 h, aerobic, N = No activity
Protocol: as §1

S. epidermidis C621 wt = conditions: Gram+, Mueller Hinton broth, 37° C., 24 h, aerobic, N = No activity
Protocol: as §1

S. pyogenes C721 wt = conditions: Gram+, Todd Hewitt broth, 37° C., 24 h, aerobic, N = No activity
Protocol: as §1

Row | SMILES | Minimum inhibitory concentration (MIC) (E. coli UB1005 C498 wt) | Minimum inhibitory concentration (MIC) [1] | Minimum inhibitory concentration (MIC) [2] | Minimum inhibitory concentration (MIC) [3] | Minimum inhibitory concentration (MIC) (S. epidermidis C621 wt) | Minimum inhibitory concentration (MIC) (S. pyogenes C721 wt)
1 | COc1cccc2c1C(=O)c1c(O)c3c(c(O)c1C2=O)C[C@@](O)(C(=O)CO)C[C@@H]3O[C@H]1C[C@H](N)[C@H](O)[C@H](C)O1 [Doxorubicin] | 10^−4 Molar | 10^−6 Molar | 10^−5 Molar | 10^−5 Molar | 10^−6 Molar | 10^−7 Molar
2 | CN(Cc1cnc2nc(N)nc(N)c2n1)c1ccc(C(=O)N[C@@H](CCC(=O)O)C(=O)O)cc1 [Methotrexate] | N | 10^−6 Molar | N | 10^−5 Molar | N | 10^−6 Molar
3 | O=C1c2c(O)ccc(O)c2C(=O)c2c(NCCNCCO)ccc(NCCNCCO)c21 [mitoxantrone] | 10^−5 Molar | 10^−6 Molar | 10^−5 Molar | 10^−5 Molar | 10^−5 Molar | 10^−6 Molar
4 | Sc1ncnc2nc[nH]c12 [6-mercaptopurine] | N | N | N | N | N | N
5 | Nc1ncnc2c1ccn2[C@@H]1O[C@H](CO)[C@@H](O)[C@H]1O [tubercidin] | N | N | N | N | N | N
6 | CC[C@@]1(O)C(=O)OCc2c1cc1n(c2=O)Cc2cc3ccccc3nc2-1 [Camptothecin] | N | N | N | N | 10^−4 Molar | N
7 | O=c1[nH]cc(F)c(=O)[nH]1 [5-Fluorouracil] | 10^−6 Molar | 10^−6 Molar | 10^−5 Molar | 10^−7 Molar | 10^−7 Molar | 10^−4 Molar
8 | NC(=O)NO [hydroxyurea] | N | N | 10^−4 Molar | N | N | 10^−4 Molar
9 | Sc1ncc2[nH]cnc2n1 [2-mercaptopurine] | N | N | N | N | N | N
10 | COc1cc([C@@H]2c3cc4c(cc3[C@@H](O[C@@H]3O[C@@H]5CO[C@@H](C)O[C@H]5[C@H](O)[C@H]3O)[C@H]3COC(=O)[C@H]23)OCO4)cc(OC)c1O [etoposide] | N | 10^−5 Molar | N | 10^−5 Molar | 10^−6 Molar | 10^−5 Molar
11 | Nc1ccn([C@@H]2O[C@H](CO)[C@@H](O)[C@@H]2O)c(=O)n1 [Cytarabine] | N | N | N | N | N | N

Reference: patent publication US7166570B2, “Medical implants and fibrosis-inducing agents” (Angiotech International AG, priority 2003, dated 2007)
